# Patent publication US10899766B2, “Bridged piperidine derivatives” (Hoffmann-La Roche Inc., priority 2016, dated 2021)
# System: γ-secretase
# Assay: Cellular γ-secretase assay (inhibition of Aβ42 secretion, AlphaLisa)
# Format: cell-based
# Details: Human neuroglioma H4 cells overexpressing human APP695 Swedish double mutation; 24 hr compound incubation; secreted Aβ42 in supernatant
# Protocol: Cellular γ-Secretase Assay
# Human neuroglioma H4 cells overexpressing human APP695 with the Swedish double mutation (K595N/M596L) were plated at 30,000 cells/well/100 μl in 96-well plates in IMDM media containing 10% FCS, 0.2 mg/l Hygromycin B and incubated at 37° C., 5% CO2.
# 3-4 hr post plating, compounds are a diluted in media and 50 μl is added as 1.5-fold concentrate to achieve the final concentration. Compound incubation is performed for 24 hr. Final doses typically range from 4 μM down to 0.0013 μM in half-log steps resulting in a eight point dose response curve.
# Appropriate controls using vehicle only and reference compound were applied to this assay. The final concentration of Me2SO was 0.4%.
# After incubation at 37° C., 5% CO2, the supernatant was subjected to quantification of secreted Aβ42 by the means of an AlphaLisa assay kit (Human Amyloid beta 1-42 Kit: Cat # AL203C, Perkin Elmer). 20 μl of the cell culture supernatant was transferred to an assay plate. Then 10 μl of a mixture of the AlphaLisa coupled capture antibody and the biotinylated detection antibody was added and incubated for 3 hours at room temperature while softly shaking the assay plate. After a further addition of 20 μl of the Donor beads the assay plate was incubated for 30 min at room temperature and constant shaking without exposure to direct light.
# The assay plate was then read on a Paradigm AlphaLisa Reader using the build-in program with excitation at 680 nm and emission at […].
# The measured signals were then used to calculate IC50 values for inhibition of Aβ42 secretion by nonlinear regression fit analysis using XLfit 5.3 software (IDBS).
row,SMILES,EC50 [µM]
1,"Fc1ccc(N2CCCn3nc(N[C@@H]4[C@@H]5CC[C@H]4CN(c4ccnc(C(F)(F)F)c4)C5)nc32)cc1F [Example 1, 4-(3,4-difluorophenyl)-N-[(1R,5S,8S)-3-[2-(trifluoromethyl)-4-pyridyl]-3-azabicyclo[3.2.1]octan-8-yl]-6,7-dihydro-5H-[1,2,4]triazolo[1,5-a]pyrimidin-2-amine]",0.0158
2,"Fc1ccc(N2CCCn3nc(N[C@@H]4[C@@H]5CC[C@H]4CN(c4ccnc(Cl)c4)C5)nc32)cc1F [Example 2, N-[(1R,5S,8S)-3-(2-chloro-4-pyridyl)-3-azabicyclo[3.2.1]octan-8-yl]-4-(3,4-difluorophenyl)-6,7-dihydro-5H-[1,2,4]triazolo[1,5-a]pyrimidin-2-amine]",0.0059
3,"Cc1cc(N2C[C@H]3CC[C@@H](C2)[C@@H]3Nc2nc3n(n2)CCCN3c2ccc(F)c(F)c2)ncn1 [Example 3, 4-(3,4-difluorophenyl)-N-[(1R,5S,8S)-3-(6-methylpyrimidin-4-yl)-3-azabicyclo[3.2.1]octan-8-yl]-6,7-dihydro-5H-[1,2,4]triazolo[1,5-a]pyrimidin-2-amine]",0.0264
4,"Fc1ccc(N2CCn3nc(N[C@@H]4[C@@H]5CC[C@H]4CN(c4ccnc(C(F)(F)F)c4)C5)nc32)cc1F [Example 4, 4-(3,4-difluorophenyl)-N-[(1R,5S,8S)-3-[2-(trifluoromethyl)-4-pyridyl]-3-azabicyclo[3.2.1]octan-8-yl]-5,6-dihydroimidazo[1,2-b][1,2,4]triazol-2-amine]",0.0892
5,"Cc1cc(N2C[C@H]3CC[C@@H](C2)[C@@H]3Nc2nc3n(n2)CCN3c2ccc(F)c(F)c2)ncn1 [Example 5, 4-(3,4-difluorophenyl)-N-[(1R,5S,8S)-3-(6-methylpyrimidin-4-yl)-3-azabicyclo[3.2.1]octan-8-yl]-5,6-dihydroimidazo[1,2-b][1,2,4]triazol-2-amine]",0.0356
6,"FC(F)(F)c1ccc(N2CCCn3nc(N[C@@H]4[C@@H]5CC[C@H]4CN(c4ccnc(C(F)(F)F)c4)C5)nc32)cc1 [Example 6, 4-[4-(trifluoromethyl)phenyl]-N-[(1R,5S,8S)-3-[2-(trifluoromethyl)-4-pyridyl]-3-azabicyclo[3.2.1]octan-8-yl]-6,7-dihydro-5H-[1,2,4]triazolo[1,5-a]pyrimidin-2-amine]",0.0214
7,"FC(F)(F)c1ccc(N2CCCCn3nc(N[C@@H]4[C@@H]5CC[C@H]4CN(c4ccnc(C(F)(F)F)c4)C5)nc32)cc1 [Example 7, 4-[4-(trifluoromethyl)phenyl]-N-[(1R,5S,8S)-3-[2-(trifluoromethyl)-4-pyridyl]-3-azabicyclo[3.2.1]octan-8-yl]-5,6,7,8-tetrahydro-[1,2,4]triazolo[1,5-a][1,3]diazepin-2-amine]",0.0302
8,"Cc1cc(N2C[C@H]3CC[C@@H](C2)[C@@H]3Nc2nc3n(n2)CCCN3c2ccc(C(F)(F)F)cc2)ncn1 [Example 8, N-[(1R,5S,8S)-3-(6-methylpyrimidin-4-yl)-3-azabicyclo[3.2.1]octan-8-yl]-4-[4-(trifluoromethyl)phenyl]-6,7-dihydro-5H-[1,2,4]triazolo[1,5-a]pyrimidin-2-amine]",0.0117
9,"Cc1cc(N2C[C@H]3CC[C@@H](C2)[C@@H]3Nc2nc3n(n2)CCCCN3c2ccc(C(F)(F)F)cc2)ncn1 [Example 9, N-[(1R,5S,8S)-3-(6-methylpyrimidin-4-yl)-3-azabicyclo[3.2.1]octan-8-yl]-4-[4-(trifluoromethyl)phenyl]-5,6,7,8-tetrahydro-[1,2,4]triazolo[1,5-a][1,3]diazepin-2-amine]",0.0192
10,"Cc1ccc(N2CCCn3nc(N[C@@H]4[C@@H]5CC[C@H]4CN(c4ccnc(C(F)(F)F)c4)C5)nc32)cc1F [Example 10, 4-(3-fluoro-4-methyl-phenyl)-N-[(1R,5S,8S)-3-[2-(trifluoromethyl)-4-pyridyl]-3-azabicyclo[3.2.1]octan-8-yl]-6,7-dihydro-5H-[1,2,4]triazolo[1,5-a]pyrimidin-2-amine]",0.0312
11,"Cc1cc(N2C[C@H]3CC[C@@H](C2)[C@@H]3Nc2nc3n(n2)CCCN3c2ccc(C)c(F)c2)ncn1 [Example 11, 4-(3-fluoro-4-methyl-phenyl)-N-[(1R,5S,8S)-3-(6-methylpyrimidin-4-yl)-3-azabicyclo[3.2.1]octan-8-yl]-6,7-dihydro-5H-[1,2,4]triazolo[1,5-a]pyrimidin-2-amine]",0.0278
12,"Cc1cc(N2C[C@H]3CC[C@@H](C2)[C@@H]3Nc2nc3n(n2)CCN3c2ccc(C(F)(F)F)cc2)ncn1 [Example 12, N-[(1R,5S,8S)-3-(6-methylpyrimidin-4-yl)-3-azabicyclo[3.2.1]octan-8-yl]-4-[4-(trifluoromethyl)phenyl]-5,6-dihydroimidazo[1,2-b][1,2,4]triazol-2-amine]",0.0268
13,"Cc1ccc(N2CCCn3nc(N[C@@H]4[C@@H]5CC[C@H]4CN(c4cc(Cl)ncn4)C5)nc32)cc1F [Example 13, N-[(1R,5S,8S)-3-(6-chloropyrimidin-4-yl)-3-azabicyclo[3.2.1]octan-8-yl]-4-(3-fluoro-4-methyl-phenyl)-6,7-dihydro-5H-[1,2,4]triazolo[1,5-a]pyrimidin-2-amine]",0.0114
14,"COc1cc(N2C[C@H]3CC[C@@H](C2)[C@@H]3Nc2nc3n(n2)CCCN3c2ccc(F)c(F)c2)ncn1 [Example 14, 4-(3,4-difluorophenyl)-N-[(1R,5S,8S)-3-(6-methoxypyrimidin-4-yl)-3-azabicyclo[3.2.1]octan-8-yl]-6,7-dihydro-5H-[1,2,4]triazolo[1,5-a]pyrimidin-2-amine]",0.0155
15,"Cc1noc(N2C[C@H]3CC[C@@H](C2)[C@@H]3Nc2nc3n(n2)CCCN3c2ccc(F)c(F)c2)n1 [Example 15, 4-(3,4-difluorophenyl)-N-[(1R,5S,8S)-3-(3-methyl-1,2,4-oxadiazol-5-yl)-3-azabicyclo[3.2.1]octan-8-yl]-6,7-dihydro-5H-[1,2,4]triazolo[1,5-a]pyrimidin-2-amine]",0.0306
16,"Fc1ccc(N2CCCn3nc(N[C@@H]4[C@@H]5CC[C@H]4CN(c4cnnc(Cl)c4)C5)nc32)cc1F [Example 16, N-[(1R,5S,8S)-3-(6-chloropyridazin-4-yl)-3-azabicyclo[3.2.1]octan-8-yl]-4-(3,4-difluorophenyl)-6,7-dihydro-5H-[1,2,4]triazolo[1,5-a]pyrimidin-2-amine]",0.0172
17,"Fc1ccc(N2CCCn3nc(N[C@@H]4[C@@H]5CC[C@H]4CN(c4cc(Cl)ncn4)C5)nc32)cc1F [Example 17, N-[(1R,5S,8S)-3-(6-chloropyrimidin-4-yl)-3-azabicyclo[3.2.1]octan-8-yl]-4-(3,4-difluorophenyl)-6,7-dihydro-5H-[1,2,4]triazolo[1,5-a]pyrimidin-2-amine]",0.058
18,"COc1cc(N2C[C@H]3CC[C@@H](C2)[C@@H]3Nc2nc3n(n2)CCCN3c2ccc(F)c(F)c2)cnn1 [Example 18, 4-(3,4-difluorophenyl)-N-[(1R,5S,8S)-3-(6-methoxypyridazin-4-yl)-3-azabicyclo[3.2.1]octan-8-yl]-6,7-dihydro-5H-[1,2,4]triazolo[1,5-a]pyrimidin-2-amine]",0.0264
19,"Cc1ncnc(N2C[C@H]3CC[C@@H](C2)[C@@H]3Nc2nc3n(n2)CCCN3c2ccc(F)c(F)c2)c1F [Example 19, 4-(3,4-difluorophenyl)-N-[(1R,5S,8S)-3-(5-fluoro-6-methyl-pyrimidin-4-yl)-3-azabicyclo[3.2.1]octan-8-yl]-6,7-dihydro-5H-[1,2,4]triazolo[1,5-a]pyrimidin-2-amine]",0.0139
20,"Cc1cc(N2C[C@H]3CC[C@@H](C2)[C@@H]3Nc2nc3n(n2)CCCN3c2ccc(F)c(F)c2)cnn1 [Example 20, 4-(3,4-difluorophenyl)-N-[(1R,5S,8S)-3-(6-methylpyridazin-4-yl)-3-azabicyclo[3.2.1]octan-8-yl]-6,7-dihydro-5H-[1,2,4]triazolo[1,5-a]pyrimidin-2-amine]",0.0231
21,"COc1cc(N2C[C@H]3CC[C@@H](C2)[C@@H]3Nc2nc3n(n2)CCCN3c2ccc(F)c(F)c2)ccn1 [Example 21, 4-(3,4-difluorophenyl)-N-[(1R,5S,8S)-3-(2-methoxy-4-pyridyl)-3-azabicyclo[3.2.1]octan-8-yl]-6,7-dihydro-5H-[1,2,4]triazolo[1,5-a]pyrimidin-2-amine]",0.0147
22,"Fc1ccc(N2CCCCn3nc(N[C@@H]4[C@@H]5CC[C@H]4CN(c4ccnc(C(F)(F)F)c4)C5)nc32)cc1F [Example 22, 4-(3,4-difluorophenyl)-N-[(1R,5S,8S)-3-[2-(trifluoromethyl)-4-pyridyl]-3-azabicyclo[3.2.1]octan-8-yl]-5,6,7,8-tetrahydro-[1,2,4]triazolo[1,5-a][1,3]diazepin-2-amine]",0.0348
